Where “and” joins values, the source holds several entries; their conditions need not be identical. Equal entries are not always repeated. Numbers after ± are expanded uncertainties.
Conditions: 313.15 K; Liquid; Ebulliometric method (Recirculating still)

vapor or sublimation pressure	SMILES
31.63 ± 0.17 kPa and 31.64 ± 0.17 kPa	CCOC(C)(C)C [2-ethoxy-2-methylpropane]
44.96 ± 0.28 kPa and 44.94 ± 0.28 kPa	C=CCCCC [hex-1-ene]

SMILES	vapor or sublimation pressure
Cc1ccccc1 [toluene]	7.869 ± 0.07 kPa and 7.872 ± 0.07 kPa
